Active and inactive are the calls of the source. The rule behind the calls is not given here.
Tests used:
Cathepsin D = Cathepsin D (Homo sapiens, UniProt P07339); experiment: Inhibition of human cathepsin D using GKPILFFRLK(DNP)-D-RNH2) labeled MCA as substrate preincubated for 10 mins followed by substrate addition measured after 1 to 2 hrs by fluorometric method
HL-60 = experiment: Growth inhibition of human HL60 cells up to 10 uM after 72 hrs by MTT assay; assay type: functional, cell-based
HeLa = experiment: Growth inhibition of human HeLa cells up to 10 uM after 72 hrs by MTT assay; assay type: functional, cell-based
MCF7 = experiment: Growth inhibition of human MCF7 cells up to 10 uM after 72 hrs by MTT assay; assay type: functional, cell-based

Cathepsin D, sequence (P07339 65-162 limits assumed): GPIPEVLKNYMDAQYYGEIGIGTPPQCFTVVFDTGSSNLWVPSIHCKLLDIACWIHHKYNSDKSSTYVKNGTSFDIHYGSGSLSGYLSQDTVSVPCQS
Cathepsin D, sequence (P07339 169-412 limits assumed): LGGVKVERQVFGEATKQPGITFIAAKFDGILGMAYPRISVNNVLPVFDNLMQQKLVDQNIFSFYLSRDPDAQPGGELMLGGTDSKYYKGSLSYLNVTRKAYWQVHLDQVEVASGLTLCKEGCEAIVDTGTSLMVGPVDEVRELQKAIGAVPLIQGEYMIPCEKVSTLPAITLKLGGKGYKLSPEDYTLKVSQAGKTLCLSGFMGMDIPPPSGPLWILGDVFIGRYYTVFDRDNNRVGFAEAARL

Row | SMILES | IC50 (Cathepsin D) [nM] | growth inhibition (GI) (HL-60) | growth inhibition (GI) (HeLa) | growth inhibition (GI) (MCF7)
1 | CC[C@H](C)[C@H](NC(=O)[C@H](OC(=O)[C@@H](O)C(C)C)[C@@H](C)CC)C(=O)NCC(=O)N(C)[C@H](Cc1ccccc1)C(=O)N1CCC[C@H]1C(=O)OC | > 10000 | inactive | inactive | inactive
2 | CC[C@H](C)[C@H](NC(=O)C[C@H](O)[C@H](CC(C)C)NC(=O)[C@H](OC(=O)[C@@H](O)C(C)C)C(C)C)C(=O)N[C@@H](C)C(=O)N(C)[C@H](Cc1ccccc1)C(=O)N1CCC[C@H]1C(=O)OC | 380 | inactive | inactive | inactive
3 | CC[C@H](C)[C@H](NC(=O)C[C@H](O)[C@H](CC(C)C)NC(=O)[C@H](OC(=O)[C@@H](O)C(C)C)[C@@H](C)CC)C(=O)N[C@@H](C)C(=O)N(C)[C@H](Cc1ccccc1)C(=O)N1CCC[C@H]1C(=O)OC | 270 | inactive | inactive | inactive

— ChEMBL document CHEMBL4145636, “Izenamides A and B, Statine-Containing Depsipeptides, and an Analogue from a Marine Cyanobacterium” (J Nat Prod, 2018)
